According to patent US20190029974A1, “METHODS FOR TREATING SKIN DISORDERS AND CONDITIONS UTILIZING HAPTENS” (RXi Pharmaceuticals Corporation, priority 2015, published 2019):

What was measured:
[1] = Solubility of DPCP in solvents for gel and ointment formulations; type: physicochemical
Description: (§1) The compatibility and solubility of DPCP was determined in both isopropyl myristate (IPM) as well as Polysorbate 80 (PS80). […] Next, the stability of DPCP in these solvents was determined. A solution of 0.4% DPCP in isopropyl myristate and a solution of 0.4% DPCP in Polysorbate 80 was placed at 50° C. for two weeks. The stability of DPCP in these solvents was determined using reverse phase HPLC on a C18 column.

[2] = Stability of 0.4% DPCP solutions in solvents at 50° C., reverse phase HPLC on a C18 column; type: physicochemical
Description: as §1
For the development of a gel, the stability of DPCP was determined in both Ethanol (ETOH) and Isopropanol (IPA) was determined (0.4% DPCP solutions in each solvent was placed at 50° C. for two weeks; FIG. 3. All solutions contained 0.1% BHT). […] However, DPCP was stable in IPA. The stability of DPCP in the above solvents was determined using reverse phase HPLC on a C18 column.

solubility of DPCP in PS80 ([1]; Polysorbate 80 (PS80)): highly soluble
solubility of DPCP in IPM ([1]; isopropyl myristate (IPM)): about 1.1 % w/w
stability of DPCP in PS80 ([2]; 0.4% DPCP in Polysorbate 80, 50° C., two weeks): some degradation
stability of DPCP in ETOH ([2]; 0.4% DPCP in ethanol, 0.1% BHT, in the presence of citric acid, 50° C., two weeks): Some degradation
stability of DPCP in IPA ([2]; 0.4% DPCP in isopropanol, 0.1% BHT, 50° C., two weeks): stable
stability of DPCP in IPM ([2]; 0.4% DPCP in isopropyl myristate, 50° C., two weeks): stable
effect of BHT on degradation of DPCP in PS80 ([2]; PS80 with butylated hydroxytoloune (BHT)): reduce the amount of degradation
SMILES: O=c1c(-c2ccccc2)c1-c1ccccc1 [DPCP, Diphenylcyclopropenone]
